# Source: US10005756B2, “Pyrrolidinone derivatives as MetAP-2 inhibitors” (Merck Patent GmbH, priority 2014, dated 2018)
# pIC50: −log10 of the molar value. Like-named read-outs stand apart in the source and are kept apart here.
# Tested on: human umbilical vein endothelial cells (HUVEC)
# Assay: HUVEC proliferation quantified by BrdU incorporation
# Type: cell-based
# Settings: read-out: IC50 HUVEC
# Method: Determination of the Proliferation Inhibition by Inhibitors of Methionine Aminopeptidase 2 in the BrdU Proliferation Test (Cellular Assay)
# After detachment of the cells by means of trypsin/EDTA, the number of living cells is determined, and the cells are sown in a density of 1000 cells per cavity in a total volume of 175 μl (cavities are coated in advance either with supplemented culture medium for 1-2 hours at 37° C. or with 1.5% gelatine for 0.5-2 hours at 37° C.). After cultivation for 24 hours, the test substances are added in various concentrations (for example final concentrations 30 μM to 0.03 nM in 10-fold dilution steps) and a volume of 25 μl. The DMSO concentration is kept constant at 0.3%. […] To this end, the cells are treated with a fixative for 30 min at room temperature and subsequently incubated with a peroxidase-labelled anti-BrdU antibody (diluted 1:100 in antibody dilution buffer) for 60 min at room temperature. […] The colour development is stopped after 15 min by addition of 25 μl of a 1M sulfuric acid solution. […] The controls used are cavities containing DMSO-treated cells (100% control) or empty cavities (blank value).
# HUVEC Proliferation Quantified by BrdU Incorporation
# HUVEC Means Human Umbilical Vein Endothelial Cells
# HUVEC proliferation is measured after a 5 day incubation period using incorporation of BrdU as a measure of cell cycle activity. Cells are incubated in the presence or absence of test substances. During the last 18 to 24 hours of the incubation period BrdU is added to the medium. BrdU is incorporated into the DNA as the cells progress through S-phase (DNA synthesis) of the cell cycle. The cells are fixed and the amount of BrdU incorporated can be quantified using a commercial ELISA for detection of BrdU.
# HUVEC are routinely cultured in EGM MV medium and used between passages 3 and 8.
# All substances are run in triplicate.
# Reference compounds are run in every assay.
# Data is analyzed using the Assay Explorer program. Briefly, the blank is subtracted from all values, the triplicates are averaged and normalized to the untreated. EC50 is determined from a 4-parameter general sigmoidal curve (Hill fit y=(s0−slnf)/(1+(x/AC50)^nHill)+slnf) in Assay Explorer, Symyx). The processed data (EC50 or % Effect if no EC50 if reached, Efficacy) is uploaded directly from Assay Explorer to the MSRDB.
smiles,measurement,setting,value
CC(C)(C)OC(=O)C(CCC(N)=O)NC(=O)c1cc2cc(N3CC[C@](O)(C(=O)NCc4cc(F)cc(Cl)c4)C3=O)ccc2[nH]1 (stereo in doubt) [Compound A27],pIC50,HUVEC,6.32
NC(=O)c1cc2cc(N3CC[C@@](O)(C(=O)NCc4cc(F)cc(F)c4)C3=O)ccc2[nH]1 (stereo in doubt) [Compound A86],pIC50,HUVEC,7.15
O=C(NCc1cc(F)cc(Cl)c1)[C@@]1(O)CCN(c2cccc(S(=O)(=O)N3CCNCC3)c2)C1=O [Compound A1],pIC50,HUVEC,6.00
C[C@H](c1ccccc1)N1CC[C@](O)(C(=O)NCc2cc(F)cc(Cl)c2)C1=O [Compound A2],pIC50,HUVEC,5.15
C[C@@H](c1ccccc1)N1CC[C@](O)(C(=O)NCc2cc(F)cc(Cl)c2)C1=O [Compound A3],pIC50,HUVEC,6.14
O=C(NCc1cc(F)cc(Cl)c1)[C@@]1(O)CCN(c2cnc(Cl)c(F)c2)C1=O [Compound A4],pIC50,HUVEC,4.96
CCNS(=O)(=O)c1ccc(N2CC[C@](O)(C(=O)NCc3cc(F)cc(Cl)c3)C2=O)cc1 [Compound A5],pIC50,HUVEC,6.72
N/C(=N\O)c1cc2cc(N3CC[C@](O)(C(=O)NCc4cc(F)cc(Cl)c4)C3=O)ccc2[nH]1 [Compound A6],pIC50,HUVEC,7.52
O=C(NCc1cc(F)cc(Cl)c1)C1(O)CCN(c2cccc(-c3nnn[nH]3)c2)C1=O (stereo not drawn) [Compound A7],pIC50,HUVEC,4.52
Cc1nnc(-c2cc3cc(N4CC[C@](O)(C(=O)NCc5cc(F)cc(Cl)c5)C4=O)ccc3[nH]2)o1 [Compound A8],pIC50,HUVEC,7.77
O=C(NCc1cc(F)cc(Cl)c1)[C@@]1(O)CCN(c2ccc3[nH]c(-c4nnco4)cc3c2)C1=O [Compound A9],pIC50,HUVEC,7.85
O=C(NCc1cc(F)cc(Cl)c1)[C@@]1(O)CCN(c2ccc3[nH]c(-c4nnn[nH]4)cc3c2)C1=O [Compound A10],pIC50,HUVEC,5.42
Cc1nc(-c2cc3cc(N4CC[C@](O)(C(=O)NCc5cc(F)cc(Cl)c5)C4=O)ccc3[nH]2)no1 [Compound A11],pIC50,HUVEC,7.62
O=C(NCc1cc(F)cc(Cl)c1)C1=CCN(c2ccccc2)C1=O [Compound A12],pIC50,"HUVEC proliferation, BrdU incorporation",5.48
O=C(NCc1cc(F)cc(Cl)c1)C1(O)C(=O)N(c2ccccc2)CC1O (stereo not drawn) [Compound A13],pIC50,HUVEC,5.60
O=C(NCc1cc(F)cc(Cl)c1)C1(O)CCN(c2ccn[nH]2)C1=O (stereo not drawn) [Compound A15],pIC50,HUVEC,5.28
O=C(NCc1cc(F)cc(Cl)c1)C1(O)CCN(c2ccc3oc(=O)ccc3c2)C1=O (stereo not drawn) [Compound A16],pIC50,HUVEC,5.46
CC(=O)Nc1cc2cc(N3CCC(O)(C(=O)NCc4cc(F)cc(Cl)c4)C3=O)ccc2oc1=O (stereo not drawn) [Compound A17],pIC50,HUVEC,5.96
O=C(NCc1cc(F)cc(Cl)c1)C1(O)CCN(c2cccc(O)c2)C1=O (stereo not drawn) [Compound A18],pIC50,HUVEC,6.74
Nc1ccc(N2CCC(O)(C(=O)NCc3cc(F)cc(Cl)c3)C2=O)cc1/C=C/C(=O)O (stereo not drawn) [Compound A19],pIC50,HUVEC,6.74
O=C(NCc1cc(F)cc(Cl)c1)C1(O)CCN(C(CO)c2ccccc2)C1=O (stereo not drawn) [Compound A21],pIC50,HUVEC,5.38
O=C(NCc1cc(F)cc(Cl)c1)C1(O)CCN(c2ccc3[nH]c(Br)cc3c2)C1=O (stereo not drawn) [Compound A22],pIC50,HUVEC,6.89
O=C(NCc1cc(F)cc(Cl)c1)C1(O)CCN(c2ccc3[nH]c(-c4ccc(Cl)cc4)nc3c2)C1=O (stereo not drawn) [Compound A25],pIC50,HUVEC,5.89
O=C(NCc1cc(F)cc(Cl)c1)[C@@]1(O)CCN(c2cncnc2)C1=O [Compound A26],pIC50,HUVEC,4.96
O=C(NCc1cc(F)cc(Cl)c1)C1(O)CCN(c2ccc3c(c2)CS(=O)(=O)C3)C1=O (stereo not drawn) [Compound A28],pIC50,HUVEC,6.28
O=C(NCc1cc(F)cc(Cl)c1)C1(O)CCN(c2ccc(C(O)(C(F)(F)F)C(F)(F)F)cc2)C1=O (stereo not drawn) [Compound A29],pIC50,HUVEC,5.82
O=C(NCc1cc(F)cc(Cl)c1)[C@@]1(O)CCN(c2cnc3[nH]cc(Br)c3c2)C1=O [Compound A33],pIC50,HUVEC,8.27
O=C(NCc1cc(F)cc(Cl)c1)[C@@]1(O)CCN(c2cnc3[nH]cc(I)c3c2)C1=O [Compound A34],pIC50,HUVEC,8.17
NCCCCNC(=O)c1cc2cc(N3CC[C@](O)(C(=O)NCc4cc(F)cc(Cl)c4)C3=O)ccc2[nH]1 [Compound A35],pIC50,HUVEC,7.29
NC(=O)CC[C@H](NC(=O)c1cc2cc(N3CC[C@](O)(C(=O)NCc4cc(F)cc(Cl)c4)C3=O)ccc2[nH]1)C(=O)O [Compound A39],pIC50,HUVEC,5.51
NCCCNC(=O)c1cc2cc(N3CC[C@](O)(C(=O)NCc4cc(F)cc(Cl)c4)C3=O)ccc2[nH]1 [Compound A40],pIC50,HUVEC,6.70
O=C(NCc1cc(F)cc(Cl)c1)[C@@]1(O)CCN(c2ccc3c(c2)COB3O)C1=O [Compound A41],pIC50,HUVEC,6.59
O=C(NCc1cc(F)cc(Cl)c1)C1(O)CCN(c2ccc3c(c2)CS(=O)(=O)N3)C1=O (stereo not drawn) [Compound A42],pIC50,HUVEC,5.89
COc1ccc(CN2c3ccc(N4CCC(O)(C(=O)NCc5cc(F)cc(Cl)c5)C4=O)cc3CS2(=O)=O)cc1 (stereo not drawn) [Compound A43],pIC50,HUVEC,6.09
CC(C)C(NC(=O)CN1CCC(O)(C(=O)NCc2cc(F)cc(Cl)c2)C1=O)C(=O)N(C)C (stereo not drawn) [Compound A46],pIC50,HUVEC,7.35
O=C(NCc1cc(F)cc(Cl)c1)C1(O)CCN(c2ccc3c(c2)CC(C2CC2)N3)C1=O (stereo not drawn) [Compound A47],pIC50,HUVEC,7.40
NCCCNC(=O)[C@H](CCC(N)=O)NC(=O)c1cc2cc(N3CC[C@](O)(C(=O)NCc4cc(F)cc(Cl)c4)C3=O)ccc2[nH]1 [Compound A50],pIC50,HUVEC,5.46
CN(C)C(=O)CNC(=O)[C@H](CCC(N)=O)NC(=O)c1cc2cc(N3CC[C@](O)(C(=O)NCc4cc(F)cc(Cl)c4)C3=O)ccc2[nH]1 [Compound A51],pIC50,HUVEC,5.09
NC(=O)CC[C@H](NC(=O)c1cc2cc(N3CC[C@](O)(C(=O)NCc4cc(F)cc(Cl)c4)C3=O)ccc2[nH]1)C(=O)N[C@@H](Cc1ccccc1)C(N)=O [Compound A52],pIC50,HUVEC,5.36
O=C(NCc1cc(F)cc(Cl)c1)[C@@]1(O)CCN(c2cnc3[nH]cc(F)c3c2)C1=O [Compound A53],pIC50,HUVEC,7.41
O=C(NCc1cc(F)cc(Cl)c1)C1(O)CCN(c2ccc(C(F)F)cc2)C1=O (stereo not drawn) [Compound A60],pIC50,HUVEC,5.74
O=C(NCc1cc(F)cc(Cl)c1)[C@@]1(O)CCN(c2cnc3[nH]c(Cl)c(Cl)c3c2)C1=O [Compound A62],pIC50,HUVEC,6.74
"CS(=N)(=O)c1ccc(N2CCC(O)(C(=O)NCc3cc(F)cc(Cl)c3)C2=O)cc1 (stereo not drawn) [Compound A64, 3-hydroxy-1-(4-methanesulfoximinoyl-phenyl)-2-oxo-pyrrolidine-3-carboxylic acid 3-chloro-5-fluoro-benzylamide]",pIC50,HUVEC,5.21
O=C(NCc1cc(F)cc(Cl)c1)[C@@]1(O)CCN(c2ccc(OC(F)(F)F)cc2)C1=O [Compound A65],pIC50,HUVEC,5.82
O=C1Cc2cc(N3CC[C@](O)(C(=O)NCc4cc(F)cc(F)c4)C3=O)ccc2N1 [Compound A66],pIC50,HUVEC,7.12
O=C(NCc1cc(F)cc(Cl)c1)[C@@]1(O)CCN(c2cccc(OC(F)(F)F)c2)C1=O [Compound A67],pIC50,HUVEC,6.54
O=CNCCCCNC(=O)c1cc2cc(N3CC[C@](O)(C(=O)NCc4cc(F)cc(Cl)c4)C3=O)ccc2[nH]1 [Compound A68],pIC50,HUVEC,6.96
C[S@@](=N)(=O)c1ccc(N2CC[C@](O)(C(=O)NCc3cc(F)cc(Cl)c3)C2=O)cc1 [Compound A69],pIC50,HUVEC,6.52
C[S@](=N)(=O)c1ccc(N2CC[C@](O)(C(=O)NCc3cc(F)cc(Cl)c3)C2=O)cc1 [Compound A70],pIC50,HUVEC,6.15
CS(=N)(=O)c1cccc(N2CCC(O)(C(=O)NCc3cc(F)cc(Cl)c3)C2=O)c1 (stereo not drawn) [Compound A71],pIC50,HUVEC,5.85
O=C(NCc1cc(F)cc(Cl)c1)C1(O)CCN(c2ccc3c(c2)CCOB3O)C1=O (stereo not drawn) [Compound A74],pIC50,HUVEC,7.85
"O=C(NCc1cc(F)cc(F)c1)[C@@]1(O)CCN(c2ccc3[nH]ncc3c2)C1=O [Compound A75, (S)-3-Hydroxy-1-(1H-indazol-5-yl)-2-oxo-pyrrolidine-3-carboxylic acid 3,5-difluoro-benzylamide]",pIC50,HUVEC,7.38
COc1ccc(Cn2ccc3cc(N4CC[C@](O)(C(=O)NCc5cc(F)cc(F)c5)C4=O)cnc32)cc1 [Compound A76],pIC50,HUVEC,6.59
O=C(NCc1cc(F)cc(F)c1)[C@@]1(O)CCN(c2cnc3[nH]ccc3c2)C1=O [Compound A78],pIC50,HUVEC,7.46
